# Test system: Hs578T
# Experiment: normalised viability (% of control), CellTiter-Blue; higher = more viable cells (about 100 = DMSO control)
# Settings: 100 nM; incubation time: 72 h
# Description: (§1)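 DSRT, CellTiter-Blue viability, 72 h incubation. Signal is normalised to DMSO and benzethonium chloride controls. Value is the normalised response at dose 3.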
row,Compound,normalised viability [%]
1,Nc1ccccc1NC(=O)c1ccc(CNC(=O)OCc2cccnc2)cc1 [Entinostat],93.3
2,C=CC(=O)Nc1cc2c(Nc3ccc(F)c(Cl)c3)ncnc2cc1OCCCN1CCOCC1 [Canertinib],79.4
3,CC[C@H](Nc1ncnc2[nH]cnc12)c1nc2cccc(F)c2c(=O)n1-c1ccccc1 [CAL-101],89.6
4,CCCCC(=O)OCC(=O)[C@]1(O)Cc2c(O)c3c(c(O)c2[C@@H](O[C@H]2C[C@H](NC(=O)C(F)(F)F)[C@H](O)[C@H](C)O2)C1)C(=O)c1c(OC)cccc1C3=O [Valrubicin],79.7

# Test system: HCC1937
# Experiment: as above
# Settings: 100 nM; incubation time: 72 h
# Description: as §1
row,Compound,normalised viability [%]
1,Nc1ccccc1NC(=O)c1ccc(CNC(=O)OCc2cccnc2)cc1 [Entinostat],104
2,C=CC(=O)Nc1cc2c(Nc3ccc(F)c(Cl)c3)ncnc2cc1OCCCN1CCOCC1 [Canertinib],97.4
3,CC[C@H](Nc1ncnc2[nH]cnc12)c1nc2cccc(F)c2c(=O)n1-c1ccccc1 [CAL-101],97.1
4,CCCCC(=O)OCC(=O)[C@]1(O)Cc2c(O)c3c(c(O)c2[C@@H](O[C@H]2C[C@H](NC(=O)C(F)(F)F)[C@H](O)[C@H](C)O2)C1)C(=O)c1c(OC)cccc1C3=O [Valrubicin],73.7

# Test system: MDA-MB-468
# Experiment: as above
# Settings: 100 nM; incubation time: 72 h
# Description: as §1
row,Compound,normalised viability [%]
1,Nc1ccccc1NC(=O)c1ccc(CNC(=O)OCc2cccnc2)cc1 [Entinostat],110
2,C=CC(=O)Nc1cc2c(Nc3ccc(F)c(Cl)c3)ncnc2cc1OCCCN1CCOCC1 [Canertinib],67.1
3,CC[C@H](Nc1ncnc2[nH]cnc12)c1nc2cccc(F)c2c(=O)n1-c1ccccc1 [CAL-101],115
4,CCCCC(=O)OCC(=O)[C@]1(O)Cc2c(O)c3c(c(O)c2[C@@H](O[C@H]2C[C@H](NC(=O)C(F)(F)F)[C@H](O)[C@H](C)O2)C1)C(=O)c1c(OC)cccc1C3=O [Valrubicin],92.1

# Test system: HCC1599
# Experiment: as above
# Settings: 100 nM; incubation time: 72 h
# Description: as §1
row,Compound,normalised viability [%]
1,Nc1ccccc1NC(=O)c1ccc(CNC(=O)OCc2cccnc2)cc1 [Entinostat],93.3
2,C=CC(=O)Nc1cc2c(Nc3ccc(F)c(Cl)c3)ncnc2cc1OCCCN1CCOCC1 [Canertinib],91.8
3,CC[C@H](Nc1ncnc2[nH]cnc12)c1nc2cccc(F)c2c(=O)n1-c1ccccc1 [CAL-101],73.6
4,CCCCC(=O)OCC(=O)[C@]1(O)Cc2c(O)c3c(c(O)c2[C@@H](O[C@H]2C[C@H](NC(=O)C(F)(F)F)[C@H](O)[C@H](C)O2)C1)C(=O)c1c(OC)cccc1C3=O [Valrubicin],92.2

# Test system: CAL-85-1
# Experiment: as above
# Settings: 10 nM; incubation time: 72 h
# Description: as §1
row,Compound,normalised viability [%]
1,Nc1ccccc1NC(=O)c1ccc(CNC(=O)OCc2cccnc2)cc1 [Entinostat],96.7
2,C=CC(=O)Nc1cc2c(Nc3ccc(F)c(Cl)c3)ncnc2cc1OCCCN1CCOCC1 [Canertinib],85.4
3,CC[C@H](Nc1ncnc2[nH]cnc12)c1nc2cccc(F)c2c(=O)n1-c1ccccc1 [CAL-101],87.5
4,CCCCC(=O)OCC(=O)[C@]1(O)Cc2c(O)c3c(c(O)c2[C@@H](O[C@H]2C[C@H](NC(=O)C(F)(F)F)[C@H](O)[C@H](C)O2)C1)C(=O)c1c(OC)cccc1C3=O [Valrubicin],84.2

# Test system: MDA-MB-436
# Experiment: as above
# Settings: 100 nM; incubation time: 72 h
# Description: as §1
row,Compound,normalised viability [%]
1,Nc1ccccc1NC(=O)c1ccc(CNC(=O)OCc2cccnc2)cc1 [Entinostat],83.5
2,C=CC(=O)Nc1cc2c(Nc3ccc(F)c(Cl)c3)ncnc2cc1OCCCN1CCOCC1 [Canertinib],102
3,CC[C@H](Nc1ncnc2[nH]cnc12)c1nc2cccc(F)c2c(=O)n1-c1ccccc1 [CAL-101],104
4,CCCCC(=O)OCC(=O)[C@]1(O)Cc2c(O)c3c(c(O)c2[C@@H](O[C@H]2C[C@H](NC(=O)C(F)(F)F)[C@H](O)[C@H](C)O2)C1)C(=O)c1c(OC)cccc1C3=O [Valrubicin],122

# Test system: SK-BR-3
# Experiment: as above
# Settings: 100 nM; incubation time: 72 h
# Description: as §1
row,Compound,normalised viability [%]
1,Nc1ccccc1NC(=O)c1ccc(CNC(=O)OCc2cccnc2)cc1 [Entinostat],85.6
2,C=CC(=O)Nc1cc2c(Nc3ccc(F)c(Cl)c3)ncnc2cc1OCCCN1CCOCC1 [Canertinib],21.4
3,CC[C@H](Nc1ncnc2[nH]cnc12)c1nc2cccc(F)c2c(=O)n1-c1ccccc1 [CAL-101],76.3
4,CCCCC(=O)OCC(=O)[C@]1(O)Cc2c(O)c3c(c(O)c2[C@@H](O[C@H]2C[C@H](NC(=O)C(F)(F)F)[C@H](O)[C@H](C)O2)C1)C(=O)c1c(OC)cccc1C3=O [Valrubicin],57.8

# From the supplement of paper PMC4862054
